Measurements: US20210299098A1, “SELECTIVE ESTROGEN RECEPTOR MODULATOR FOR TREATMENT OF PANCREATIC CANCER” (CIPLA LIMITED, priority 2020, published 2021)
pIC50: −log10 of the molar value.

What was measured:
[1] = used as oral contraceptive; cited from earlier work
HPAC cell line = test: CellTiter-Blue cell viability assay, HPAC; type: cell-based; conditions: Homo sapiens, most resistant cell line, read-out: individual IC50
From the text: (§1) AsPc 1 (A), BxPC3 (B), Miapaca2 (C), Panc 10.05 (D), SW1990 (E) and Panc 1 (F) were established at Oncotest from the corresponding human patient derived xenograft. CAPAN-2, HUP-T3 and PA-TU-8902 were purchased from DSMZ (Braunschweig, Germany). PANC-1 was purchased from CLS Cell Line Services GmbH (Eppelheim, Germany). BxPC-3, HPAC and MIA-Pa-Ca-2 were purchased from ATCC (Rockville, Md., USA). Authenticity of cell lines was confirmed at the DSMZ by STR (short tandem repeat) analysis, a PCR based DNA-fingerprinting methodology. Cell lines were routinely passaged once or twice weekly and maintained in culture for up to 20 passages. All cells were grown at 37° C. in a humidified atmosphere with 5% CO2 in RPMI 1640 medium (25 mM HEPES, with L-glutamine, #FG1385, Biochrom, Berlin, Germany) supplemented with 10% (v/v) fetal calf serum (Sigma, Taufkirchen, Germany) and 0.1 mg/mL gentamicin (Life Technologies, Karlsruhe, Germany). […] Briefly, cells were harvested from exponential phase cultures, counted and plated in 96-well flat-bottom microtiter plates at a cell density of 6,000-20,000 cells/well depending on the cell line's growth rate. […] Following an incubation period of up to four hours, fluorescence (FU) was measured by using the Enspire Multimode Plate Reader (excitation λ=531 nm, emission λ=615 nm). […]

[2] = test system: AsPc 1 pancreatic cancer cell line; test: CellTiter-Blue cell viability assay, AsPC1; type: cell-based; conditions: Homo sapiens, 96 hours treatment
Method: as §1, with “The in vitro anti-tumor activity of levormeloxifene or its pharmaceutically acceptable salt was evaluated in six human pancreatic cancer cell lines: AsPc 1 (A), BxPC3 (B), Miapaca2 (C), Panc 10.05 (D), SW1990 (E) and Panc 1 (F). AsPc” for “AsPc”, “passages.” for “passages. All cells were grown at 37° C. in a humidified atmosphere with 5% CO2 in RPMI 1640 medium (25 mM HEPES, with L-glutamine, #FG1385, Biochrom, Berlin, Germany) supplemented with 10% (v/v) fetal calf serum (Sigma, Taufkirchen, Germany) and 0.1 mg/mL gentamicin (Life Technologies, Karlsruhe, Germany).”

[3] = test system: Miapaca2 pancreatic cancer cell line; test: CellTiter-Blue cell viability assay, Miapaca2; type: cell-based; conditions: Homo sapiens, MIA PaCa-2; Miapaca1 cell line as printed; 96 hours treatment
Method: as §1, with “The in vitro anti-tumor activity of levormeloxifene or its pharmaceutically acceptable salt was evaluated in six human pancreatic cancer cell lines: AsPc 1 (A), BxPC3 (B), Miapaca2 (C), Panc 10.05 (D), SW1990 (E) and Panc 1 (F). AsPc” for “AsPc”, “passages.” for “passages. All cells were grown at 37° C. in a humidified atmosphere with 5% CO2 in RPMI 1640 medium (25 mM HEPES, with L-glutamine, #FG1385, Biochrom, Berlin, Germany) supplemented with 10% (v/v) fetal calf serum (Sigma, Taufkirchen, Germany) and 0.1 mg/mL gentamicin (Life Technologies, Karlsruhe, Germany).”

[4] = test system: human pancreatic cancer cell lines; test: CellTiter-Blue cell viability assay, panel of pancreatic cancer cell lines; type: cell-based
Method: The in vitro anti-tumor activity of levormeloxifene or its pharmaceutically acceptable salt was evaluated in six human pancreatic cancer cell lines: AsPc 1 (A), BxPC3 (B), Miapaca2 (C), Panc 10.05 (D), SW1990 (E) and Panc 1 (F).
AsPc 1 (A), BxPC3 (B), Miapaca2 (C), Panc 10.05 (D), SW1990 (E) and Panc 1 (F) were established at Oncotest from the corresponding human patient derived xenograft. CAPAN-2, HUP-T3 and PA-TU-8902 were purchased from DSMZ (Braunschweig, Germany). PANC-1 was purchased from CLS Cell Line Services GmbH (Eppelheim, Germany). BxPC-3, HPAC and MIA-Pa-Ca-2 were purchased from ATCC (Rockville, Md., USA). Authenticity of cell lines was confirmed at the DSMZ by STR (short tandem repeat) analysis, a PCR based DNA-fingerprinting methodology. Cell lines were routinely passaged once or twice weekly and maintained in culture for up to 20 passages. […]
The CellTiter-Blue® Cell Viability Assay (#G8081, Promega) was used according to manufacturer's instructions. Briefly, cells were harvested from exponential phase cultures, counted and plated in 96-well flat-bottom microtiter plates at a cell density of 6,000-20,000 cells/well depending on the cell line's growth rate. […] Following an incubation period of up to four hours, fluorescence (FU) was measured by using the Enspire Multimode Plate Reader (excitation λ=531 nm, emission λ=615 nm). […]

PA-TU-8902 cell line = test: CellTiter-Blue cell viability assay, PA-TU-8902; type: cell-based; conditions: Homo sapiens, PaTu 8902; PA-TU-8902, text value; read-out: individual IC50
From the text: as §1

[5] = test system: SW1990 pancreatic cancer cell line; test: CellTiter-Blue cell viability assay, SW1990; type: cell-based; conditions: Homo sapiens, 96 hours treatment
Method: as §1, with “The in vitro anti-tumor activity of levormeloxifene or its pharmaceutically acceptable salt was evaluated in six human pancreatic cancer cell lines: AsPc 1 (A), BxPC3 (B), Miapaca2 (C), Panc 10.05 (D), SW1990 (E) and Panc 1 (F). AsPc” for “AsPc”, “passages.” for “passages. All cells were grown at 37° C. in a humidified atmosphere with 5% CO2 in RPMI 1640 medium (25 mM HEPES, with L-glutamine, #FG1385, Biochrom, Berlin, Germany) supplemented with 10% (v/v) fetal calf serum (Sigma, Taufkirchen, Germany) and 0.1 mg/mL gentamicin (Life Technologies, Karlsruhe, Germany).”

[6] = test system: Panc 1 pancreatic cancer cell line; test: CellTiter-Blue cell viability assay, Panc1; type: cell-based; conditions: Homo sapiens, 96 hours treatment
Method: as §1, with “The in vitro anti-tumor activity of levormeloxifene or its pharmaceutically acceptable salt was evaluated in six human pancreatic cancer cell lines: AsPc 1 (A), BxPC3 (B), Miapaca2 (C), Panc 10.05 (D), SW1990 (E) and Panc 1 (F). AsPc” for “AsPc”, “passages.” for “passages. All cells were grown at 37° C. in a humidified atmosphere with 5% CO2 in RPMI 1640 medium (25 mM HEPES, with L-glutamine, #FG1385, Biochrom, Berlin, Germany) supplemented with 10% (v/v) fetal calf serum (Sigma, Taufkirchen, Germany) and 0.1 mg/mL gentamicin (Life Technologies, Karlsruhe, Germany).”

estrogen receptor = conditions: according to literature; cited from earlier work
[7] = test system: Panc 10.05 pancreatic cancer cell line; test: CellTiter-Blue cell viability assay, Panc10.05; type: cell-based; conditions: Homo sapiens, Panc1005; Panc10.05 cell line; 96 hours treatment
Method: as §1, with “The in vitro anti-tumor activity of levormeloxifene or its pharmaceutically acceptable salt was evaluated in six human pancreatic cancer cell lines: AsPc 1 (A), BxPC3 (B), Miapaca2 (C), Panc 10.05 (D), SW1990 (E) and Panc 1 (F). AsPc” for “AsPc”, “passages.” for “passages. All cells were grown at 37° C. in a humidified atmosphere with 5% CO2 in RPMI 1640 medium (25 mM HEPES, with L-glutamine, #FG1385, Biochrom, Berlin, Germany) supplemented with 10% (v/v) fetal calf serum (Sigma, Taufkirchen, Germany) and 0.1 mg/mL gentamicin (Life Technologies, Karlsruhe, Germany).”

[8] = test system: BxPC3 pancreatic cancer cell line; test: CellTiter-Blue cell viability assay, BxPC3; type: cell-based; conditions: Homo sapiens, BXPC-3, 96 hours treatment
Method: as §1, with “The in vitro anti-tumor activity of levormeloxifene or its pharmaceutically acceptable salt was evaluated in six human pancreatic cancer cell lines: AsPc 1 (A), BxPC3 (B), Miapaca2 (C), Panc 10.05 (D), SW1990 (E) and Panc 1 (F). AsPc” for “AsPc”, “passages.” for “passages. All cells were grown at 37° C. in a humidified atmosphere with 5% CO2 in RPMI 1640 medium (25 mM HEPES, with L-glutamine, #FG1385, Biochrom, Berlin, Germany) supplemented with 10% (v/v) fetal calf serum (Sigma, Taufkirchen, Germany) and 0.1 mg/mL gentamicin (Life Technologies, Karlsruhe, Germany).”

Row | pIC50 [2] | pIC50 [3] | pIC50 [5] | pIC50 [6] | pIC50 [7] | pIC50 [8] | Compound | half-life [1] | pIC50 (HPAC cell line) | difference between the most sensitive and most resistant cell line ([4]; HUP-T3 vs HPAC IC50) [fold] | activity in all cell lines tested (concentration-effect curves) ([4]; sigmoidal concentration-effect curves) | pIC50 (PA-TU-8902 cell line) | receptor affinity relative to the D-isomer (estrogen receptor)
1 |  |  |  |  |  |  | COc1ccc2c(c1)OC(C)(C)C(c1ccccc1)C2c1ccc(OCCN2CCCC2)cc1 (stereo not drawn) [Centchroman, ormeloxifene] | about 168 hours |  |  |  |  | 
2 | 4.74 | 4.66 | 4.57 | 4.62 | 4.62 | 4.68 | COc1ccc2c(c1)OC(C)(C)[C@@H](c1ccccc1)[C@@H]2c1ccc(OCCN2CCCC2)cc1 [levormeloxifene, (−)-3,4-trans-7-methoxy-2,2-dimethyl-3-phenyl-4-[4-[2-(pyrrolidin-1-yl)ethoxy]phenyl]chromane] |  | 2.27 | 7.4 | concentration-dependent activity | 2.99 | about 7 times
